“Also recorded” adds a separate entry of the source.
Columns and labels:
male domestic pigs [1] = experiment: Levosimendan on post-resuscitation myocardial function after beta-adrenergic blockade (propranolol); assay type: in vivo, pig
Protocol: Anesthesia was initiated by intramuscular injection of ketamine (20 mg/kg) and completed by ear vein injection of sodium pentobarbital (30 mg/kg). Additional doses of sodium pentobarbital (8 mg/kg) were injected to maintain anesthesia at intervals of one hour. A cuffed endotracheal tube was advanced into the trachea. Animals were mechanically ventilated with a volume-controlled ventilator (Model MA-1, Puritan-Bennett, Carlsbad, Calif.) with a tidal volume of 15 mL/kg, peak flow of 40 L/min, and FiO2 of 0.21. End-tidal PCO2 (ETCO2) was monitored with an infrared analyzer (Model 01R-7101A, Nihon Kohden Corp, Tokyo, Japan). Respiratory frequency was adjusted to maintain PETCO2 between 35 and 40 mm Hg.
For the measurement of left ventricular functions, a 5.5/7.5 […] biplane with Doppler transesophageal echocardiographic transducer with 4-way flexure (Model 21363A, Hewlett-Packard Co., Medical Products Group, Andover, Mass.) was advanced from the incisor teeth into the esophagus for a distance of approximately 35 cm. For the measurement of aortic pressure, a fluid-filled catheter was advanced from the left femoral artery into the thoracic aorta. For the measurements of right atrial, pulmonary arterial pressures and blood temperature, a 7-French, pentalumen, thermodilution-tipped catheter was advanced from the left femoral vein and flow-directed into the pulmonary artery. A 7-French catheter was advanced from the left cephalic vein into the great cardiac vein for the measurement of great cardiac vein blood gases and lactate. For inducing VF, a 5-French pacing catheter (EP Technologies, Inc., Mountain View, Calif.) was advanced from the right cephalic vein into the right ventricle.
The investigators were blinded to the randomization. Cardiac arrest was induced with 1 to 2 mA AC delivered to the endocardium of the right ventricle. Mechanical ventilation was discontinued after onset of VF. At the end of the 7-min interval of untreated VF, precordial compression was started with a pneumatic piston-driven chest compressor (Thumper, Model 1000, Michigan Instruments, Grand Rapids, Mich.). […] The compression force was adjusted to decrease the anterior-posterior diameter of the chest by 25%. After 5 min of precordial compression, defibrillation was attempted with a 150 J biphasic waveform shock delivered between the right infraclavicular area and the cardiac apex. If an organized cardiac rhythm with mean aortic pressure of more than 60 mm Hg persisted for an interval of 5 min or more, the animal was regarded as successfully resuscitated. All animals had restoration of spontaneous circulation (ROSC) after electrical defibrillation, and were then randomized to three treatment groups: (1) propranolol (0.1 mg/kg bolus at 6 min of VF); (2) propranolol plus levosimendan (at 10 min after post resuscitation, 20 μg/kg over 10 min followed by 0.4 μg/kg/min for 220 min); and (3) equal volumes of saline as placebo.
Measurements were obtained over an interval of 4 hours following resuscitation. After 4 hours, animals were euthanized by intravenous injection of 150 mg kg^−1 pentobarbital. Autopsy was performed to document injuries to the bony thorax and the thoracic and abdominal viscera.

male domestic pigs [2] = experiment: Example 3: dobutamine vs levosimendan in the porcine model of cardiac arrest and cardiac resuscitation; assay type: in vivo, pig
Protocol: Experimental Preparation: The experiments were performed in the porcine model of cardiac arrest and cardiac resuscitation which has been extensively exercised. (21,22). […] Anesthesia was initiated by intramuscular injection of ketamine (20 mg kg^−1) and was completed by ear vein injection of sodium pentobarbital (30 mg kg^−1). Additional 8 mg kg^−1 doses of sodium pentobarbital were injected to maintain anesthesia at intervals of one hour. A cuffed endotracheal tube was advanced into the trachea. Animals were mechanically ventilated with a volume of 15 mL kg^−1, peak airway flow of 40 L min^−1, and FiO2 of 0.2 with the aid of a volume-controlled ventilator (Model MA-1, Puritan-Bennett, Carlsbad, Calif.). End-tidal PCO2 (PETCO2) was monitored with an infrared analyzer (Model 01R-7101A, Nihon Kohden Corp, Tokyo, Japan). Respiratory frequency was adjusted to maintain PETCO2 between 35 and 40 mmHg. Blood temperature was maintained at 37±0.5° C. with the aid of infrared heating lamps, as required.
For the measurement of left ventricular functions, a 5.5/7.5 MHz biplane with pulse-wave Doppler transesophageal echocardiographic tranducer with 4-way flexure (Model 21363A, Hewlett-Packard Co. Medical Products Group, Andover, Mass.) was advanced from the incisor teeth into the esophagus for a distance of approximately 40 cm. For the measurement of aortic pressure, a fluid filled catheter was advanced from the surgically exposed left femoral artery into the thoracic aorta. For measurements of right atrial and pulmonary arterial pressures, blood temperature and cardiac output, a 7-French, pentalumen, thermodilution-tipped catheter was advanced from the surgically exposed left femoral vein and flow-directed into the pulmonary artery. For inducing VF, a 5-French pacing catheter (EP Techologies, Inc., Mountain View, Calif.) was advanced from the surgically exposed right cephalic vein into the right ventricle. […] This catheter was then looped laterally and advanced inferiorly for a distance of 5 cm into the great cardiac vein for sampling of coronary venous blood. The electrocardiographic (EKG) lead II was continuously recorded.
Experimental procedure: A total 15 animals were investigated. […] Cardiac arrest was induced with 1 to 2 mA AC delivered to the endocardium of the right ventricle. Mechanical ventilation was discontinued after onset of VF. At the end of a 7-minute interval of untreated VF, precordial compression (PC) was started with a pneumatic piston-driven chest compressor (Thumper, Model 1000, Michigan Instruments, Grand Rapids, Mich.). Coincident with the start of PC, the animal was mechanically ventilated with a tidal volume of […] and FiO2 of 1.0. […] The compression force was adjusted to decrease the anterior-posterior diameter of the chest by 25%. After 5 minutes of PC, defibrillation was attempted with a 150 J biphasic waveform shock delivered between the right infraclavicular area and the cardiac apex. If an organized cardiac rhythm with mean aortic pressure of more than 60 mm Hg persisted for an interval of 5 minutes or more, the animal was regarded as successfully resuscitated. At 10 minutes after restoration of spontaneous circulation (ROSC), one of the three interventions was begun. […] Levosimendan diluted in physiological salt solution was administered in a loading dose of 20 μg kg^−1, infused over 10 minutes, followed by infusion of 0.4 μg kg^−1 min^−1 also in physiologic salt solution for a total duration of 230 minutes.

Male Sprague-Dawley rats [3] = experiment: Example 2: dobutamine vs levosimendan for post-resuscitation myocardial failure, 8 min untreated VF + 6 min precordial compression; assay type: in vivo, rat
Protocol: The animals were anesthetized following intraperitoneal injection of 45 mg kg^−1 pentobarbital. […] No anesthetic agent was administrated during the 30 minute interval prior to inducing cardiac arrest.
Pressures were measured with a high sensitivity pressure transducer (Model 42584-01; Abbott Critical Care System, North Chicago, Ill.). The optimally damped frequency response of the system was 22 Hz. […] Guided by pressure monitoring, the catheter was slowly withdrawn into the right atrium. Right atrial pressure was measured with reference to the mid-chest with another high sensitivity pressure transducer (Abbott model 42584-01). This catheter also served as an injection site for the thermal tracer. A 4 F polyethylene catheter (model C-PMS401J; Cook Critical Care, Bloomington, Ind.) was advanced through the right external jugular vein into the right atrium. A precurved guide wire supplied with the catheter was then advanced through the catheter into the right ventricle until an endocardial electrogram was observed. Another 23-gauge polyethylene catheter (PE 50) was advanced through the left femoral artery into the abdominal aorta for measurement of aortic pressure with the same Abbott high sensitivity transducer and also for sampling arterial blood. […] The thermocouple provided for measurements of blood temperature and thermodilution cardiac output. […] An additional PE 50 catheter was advanced into right femoral vein for drug infusion. EKG lead II was continuously recorded.
Experimental Procedure: A total of 15 animals were investigated. The investigators were blinded to the intervention until immediately prior to inducing VF, at which time the principal investigator opened a sealed envelope for assignment to one of three groups: (1) levosimendan (2) dobutamine or (3) saline placebo. This allowed time for preparation of a fresh dilution of the selected drug. […] Current flow was continued for 3 minutes to prevent spontaneous defibrillation as previously described (Von Planta I, Weil MH. Cardiopulmonary resuscitation in the rat. J Appl Physiol. 1988;65(6):2641-2647). Ventilation was discontinued after onset of VF. Precordial compression was begun with a pneumatically driven mechanical chest compressor after 8 minutes of untreated VF and continued for 6 minutes. These methods have been extensively exercised and have been well-documented (see Von Plata I (supra)) and Sun SJ, Weil MH, Tang W, et al. Combined effects of buffer and adrenergic agent on postresuscitation myocardial function. J Pharm Exp Ther. 1999;291 :773-777). Coincident with the start of precordial compression, the animals were mechanically ventilated. Tidal volume was established at 6.5 ml per kg animal weight, a frequency of 100 min^−1, and on a FiO2 of 1.0.

Male Sprague-Dawley rats [4] = experiment: Example 1: post-resuscitation myocardial dysfunction after VF cardiac arrest, drug infusion for 240 min post-resuscitation
[5] = compared to saline placebo / control (FIG. 27)

| SMILES | postresuscitation ST segment elevation in ECG limb lead 2 (male domestic pigs [1]; 5 min after resuscitation (FIG. 26)) | number of postresuscitation premature ventricular beats (male domestic pigs [1]; 5 min interval after ROSC (FIG. 26)) | FAC (male domestic pigs [1]; [5]) | Postresuscitation ejection fractions (EF) (male domestic pigs [1]; [5]) | total energies of electrical shocks (male domestic pigs [1]; propranolol 0.1 mg/kg bolus at 6 min of VF) | number of electrical shocks (male domestic pigs [1]; propranolol 0.1 mg/kg bolus at 6 min of VF (FIG. 26)) | heart rate (male domestic pigs [2]; among the three groups) | arterial pressure (male domestic pigs [2]; between levosimendan and dobutamine) | cardiac output (male domestic pigs [2]; vs saline placebo (FIG. 16)) | heart rate (Male Sprague-Dawley rats [3]; after administration, post-resuscitation) | mean arterial pressure (MAP) (Male Sprague-Dawley rats [3]; between the three groups) | duration of survival (Male Sprague-Dawley rats [3]; observed over 72 hours, least with saline placebo (FIG. 15)) | cardiac index (Male Sprague-Dawley rats [3]; post-resuscitation (FIG. 13)) | dP/dt40 (Male Sprague-Dawley rats [3]; vs saline placebo (FIG. 14)) | −dP/dt (Male Sprague-Dawley rats [3]; vs saline placebo (FIG. 14)) | arterial pressures (Male Sprague-Dawley rats [4]; among the three groups, at PR10 and after administration of the drugs (FIG. 4)) | heart rate (Male Sprague-Dawley rats [4]; post-resuscitation (FIG. 5)) | cardiac index (Male Sprague-Dawley rats [4]; post-resuscitation (FIG. 6)) | lusitropic (relaxation) effect (Male Sprague-Dawley rats [4]; post-resuscitation (FIG. 10)) | stroke volume (Male Sprague-Dawley rats [4]; post-resuscitation, initially (FIG. 7)) |
| --- | --- | --- | --- | --- | --- | --- | --- | --- | --- | --- | --- | --- | --- | --- | --- | --- | --- | --- | --- | --- |
| CC(C)NCC(O)COc1cccc2ccccc12 (centres unmarked) [propranolol] | lesser; also recorded: significantly improved | significantly lesser number; also recorded: significantly improved | significantly increased; also recorded: significantly greater | significantly increased; also recorded: significantly greater | significantly lesser total energies | significantly smaller number; also recorded: significantly improved | – | – | – | – | – | – | – | – | – | – | – | – | – | – |
| CC(CCc1ccc(O)cc1)NCCc1ccc(O)c(O)c1 (centres unmarked) [Dobutamine] | – | – | – | – | – | – | did not differ | no differences in arterial pressure | Significantly greater cardiac output | moderate increase in heart rate | no significant differences | intermediate | significant increases in cardiac index | Significantly greater | Significantly greater | No significant differences | increases in heart rate of borderline significance | comparable increases in cardiac index | more profound lusitropic (relaxation) effect | significantly greater stroke volumes |
